This is an account of results in ChEMBL document CHEMBL2074432, “Human jejunal permeability of cyclosporin A: influence of surfactants on P-glycoprotein efflux in Caco-2 cells” (Pharm Res, 2003).

The target of the data set is ATP-dependent translocase ABCB1 (Homo sapiens, UniProt P08183). Briefly: TP_TRANSPORTER: transepithelial transport of cyclosporin A in Caco-2 cells. It is filed as functional, cell-based.
ATP-dependent translocase ABCB1, sequence (P08183 whole entry): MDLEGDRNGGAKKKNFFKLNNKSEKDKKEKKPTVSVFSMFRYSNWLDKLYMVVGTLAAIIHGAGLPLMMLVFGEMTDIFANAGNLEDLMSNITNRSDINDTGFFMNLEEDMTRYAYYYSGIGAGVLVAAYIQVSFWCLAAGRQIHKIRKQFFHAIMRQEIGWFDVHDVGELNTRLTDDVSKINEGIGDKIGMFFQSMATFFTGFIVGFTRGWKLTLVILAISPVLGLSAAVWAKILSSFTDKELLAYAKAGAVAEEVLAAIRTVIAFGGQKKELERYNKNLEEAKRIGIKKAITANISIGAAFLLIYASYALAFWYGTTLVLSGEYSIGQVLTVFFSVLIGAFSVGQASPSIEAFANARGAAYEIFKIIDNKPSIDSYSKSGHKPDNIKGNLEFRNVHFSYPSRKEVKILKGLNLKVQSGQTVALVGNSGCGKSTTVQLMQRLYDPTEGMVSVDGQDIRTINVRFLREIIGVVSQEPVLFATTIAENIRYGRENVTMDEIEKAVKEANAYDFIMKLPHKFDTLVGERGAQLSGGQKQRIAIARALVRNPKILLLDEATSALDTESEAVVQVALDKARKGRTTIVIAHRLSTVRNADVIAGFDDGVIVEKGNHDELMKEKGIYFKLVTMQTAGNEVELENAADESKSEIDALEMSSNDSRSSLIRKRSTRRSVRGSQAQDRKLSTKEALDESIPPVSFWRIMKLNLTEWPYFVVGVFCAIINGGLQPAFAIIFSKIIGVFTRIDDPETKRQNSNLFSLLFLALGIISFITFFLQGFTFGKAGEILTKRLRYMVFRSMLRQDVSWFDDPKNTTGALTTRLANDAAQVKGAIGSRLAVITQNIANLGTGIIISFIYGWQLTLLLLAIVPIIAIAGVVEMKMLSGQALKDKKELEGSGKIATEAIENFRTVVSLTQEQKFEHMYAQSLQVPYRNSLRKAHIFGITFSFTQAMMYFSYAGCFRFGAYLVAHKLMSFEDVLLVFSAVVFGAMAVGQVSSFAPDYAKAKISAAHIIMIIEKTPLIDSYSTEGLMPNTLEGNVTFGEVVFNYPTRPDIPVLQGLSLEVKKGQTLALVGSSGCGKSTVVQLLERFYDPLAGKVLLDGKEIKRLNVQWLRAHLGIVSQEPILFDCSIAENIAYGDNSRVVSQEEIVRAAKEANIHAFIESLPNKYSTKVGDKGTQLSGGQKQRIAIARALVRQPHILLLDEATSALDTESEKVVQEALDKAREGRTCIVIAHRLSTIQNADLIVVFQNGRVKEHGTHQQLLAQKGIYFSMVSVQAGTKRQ

Regarding CREMOPHOR EL, the Activity entry was “inhibitor [+]”.

As for CREMOPHOR RH 40, the Activity result is “inhibitor [+]”.
